ChEMBL document CHEMBL5465560, “Selectivity Literature for EUbOPEN Chemogenomic Library” (2024)

How the values were obtained:
[1] = target: Tyrosine-protein kinase SYK (Homo sapiens, UniProt P43405); conditions: at 10 µM
[2] = target: Casein kinase I isoform alpha (Homo sapiens, UniProt P48729); experiment: Selectivity interaction (Kinase screening (Upstate/Millipore)) EUB0000604a CSNK1A1
[3] = target: T1, Aurora kinase A (Homo sapiens) (UniProt O14965); experiment: Selectivity interaction (ActivX KiNativ screen (kinase selectivity in THP-1 cell lysates)) EUB0000639a STK6; type: subcellular; conditions: lysate, at 0.2 µM
T1 sequence (whole entry): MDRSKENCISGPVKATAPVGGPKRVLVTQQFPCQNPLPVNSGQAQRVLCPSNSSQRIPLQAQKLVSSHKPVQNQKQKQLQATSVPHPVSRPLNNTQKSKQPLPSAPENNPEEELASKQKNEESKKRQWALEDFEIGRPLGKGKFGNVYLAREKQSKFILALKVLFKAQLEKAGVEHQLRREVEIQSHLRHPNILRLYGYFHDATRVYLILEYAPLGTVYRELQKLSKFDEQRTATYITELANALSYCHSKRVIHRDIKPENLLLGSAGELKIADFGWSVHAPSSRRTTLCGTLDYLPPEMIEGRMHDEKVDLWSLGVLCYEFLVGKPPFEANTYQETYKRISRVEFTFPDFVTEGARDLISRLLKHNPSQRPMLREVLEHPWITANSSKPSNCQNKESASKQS

[4] = target: Calcium/calmodulin-dependent protein kinase kinase 1 (Homo sapiens) (UniProt Q8N5S9); experiment: Selectivity interaction (Kinase panel (Invitrogen)) EUB0000639a CAMKK1; conditions: at 200 nM
Chain of Calcium/calmodulin-dependent protein kinase kinase 1 (Homo sapiens) (Q8N5S9 whole entry, looked up): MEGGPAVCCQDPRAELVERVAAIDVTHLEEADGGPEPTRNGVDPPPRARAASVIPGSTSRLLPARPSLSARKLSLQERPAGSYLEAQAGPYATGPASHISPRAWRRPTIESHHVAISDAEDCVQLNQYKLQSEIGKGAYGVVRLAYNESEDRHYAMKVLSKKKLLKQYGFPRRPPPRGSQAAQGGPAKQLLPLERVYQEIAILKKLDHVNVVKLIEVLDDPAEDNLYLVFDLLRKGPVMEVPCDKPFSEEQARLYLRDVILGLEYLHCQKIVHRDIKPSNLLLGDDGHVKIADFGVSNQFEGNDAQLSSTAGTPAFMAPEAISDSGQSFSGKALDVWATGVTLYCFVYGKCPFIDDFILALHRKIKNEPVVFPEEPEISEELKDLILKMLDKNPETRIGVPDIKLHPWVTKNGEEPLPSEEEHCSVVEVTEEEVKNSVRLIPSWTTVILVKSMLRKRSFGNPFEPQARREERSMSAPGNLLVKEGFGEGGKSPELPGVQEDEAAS

[5] = target: Tyrosine-protein kinase JAK1 (Homo sapiens, UniProt P23458); experiment: Selectivity interaction (Kinase panel (Carna Biosciences)) EUB0001542aTs JAK1; conditions: at 1 µM
Chain of Tyrosine-protein kinase JAK1 (P23458 whole entry): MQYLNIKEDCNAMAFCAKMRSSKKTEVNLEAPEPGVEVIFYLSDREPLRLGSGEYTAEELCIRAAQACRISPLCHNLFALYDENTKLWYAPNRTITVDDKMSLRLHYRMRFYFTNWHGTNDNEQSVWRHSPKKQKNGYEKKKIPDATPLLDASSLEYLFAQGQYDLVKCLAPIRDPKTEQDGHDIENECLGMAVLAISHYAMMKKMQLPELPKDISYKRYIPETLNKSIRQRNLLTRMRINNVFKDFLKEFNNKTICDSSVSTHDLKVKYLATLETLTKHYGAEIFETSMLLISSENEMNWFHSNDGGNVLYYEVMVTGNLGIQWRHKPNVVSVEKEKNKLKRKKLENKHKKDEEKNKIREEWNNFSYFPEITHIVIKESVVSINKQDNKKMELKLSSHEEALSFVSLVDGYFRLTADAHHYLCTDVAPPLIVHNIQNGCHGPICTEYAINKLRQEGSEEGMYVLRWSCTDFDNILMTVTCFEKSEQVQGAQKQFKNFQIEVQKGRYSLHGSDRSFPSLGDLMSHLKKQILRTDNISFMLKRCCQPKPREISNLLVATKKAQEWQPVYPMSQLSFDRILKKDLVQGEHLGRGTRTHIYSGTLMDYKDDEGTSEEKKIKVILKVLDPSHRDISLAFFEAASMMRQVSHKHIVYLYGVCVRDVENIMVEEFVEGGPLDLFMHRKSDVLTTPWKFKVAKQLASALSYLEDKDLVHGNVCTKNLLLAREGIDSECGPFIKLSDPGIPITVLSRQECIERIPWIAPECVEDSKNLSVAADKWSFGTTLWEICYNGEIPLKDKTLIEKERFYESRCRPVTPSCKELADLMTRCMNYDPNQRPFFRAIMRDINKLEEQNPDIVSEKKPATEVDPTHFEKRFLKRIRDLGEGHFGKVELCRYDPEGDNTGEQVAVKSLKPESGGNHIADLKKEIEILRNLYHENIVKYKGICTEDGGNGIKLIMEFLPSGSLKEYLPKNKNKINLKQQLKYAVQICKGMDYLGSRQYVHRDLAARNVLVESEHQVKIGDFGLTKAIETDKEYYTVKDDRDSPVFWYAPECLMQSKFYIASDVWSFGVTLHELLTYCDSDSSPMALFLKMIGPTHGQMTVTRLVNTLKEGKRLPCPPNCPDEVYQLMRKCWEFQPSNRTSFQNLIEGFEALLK

[6] = target: T2, Serine/threonine-protein kinase ULK1 (Homo sapiens) (UniProt O75385); experiment: Selectivity interaction (KinomeScan (DiscoverX)) EUB0000695a ULK1; conditions: at 100 nM
T2 sequence (whole entry): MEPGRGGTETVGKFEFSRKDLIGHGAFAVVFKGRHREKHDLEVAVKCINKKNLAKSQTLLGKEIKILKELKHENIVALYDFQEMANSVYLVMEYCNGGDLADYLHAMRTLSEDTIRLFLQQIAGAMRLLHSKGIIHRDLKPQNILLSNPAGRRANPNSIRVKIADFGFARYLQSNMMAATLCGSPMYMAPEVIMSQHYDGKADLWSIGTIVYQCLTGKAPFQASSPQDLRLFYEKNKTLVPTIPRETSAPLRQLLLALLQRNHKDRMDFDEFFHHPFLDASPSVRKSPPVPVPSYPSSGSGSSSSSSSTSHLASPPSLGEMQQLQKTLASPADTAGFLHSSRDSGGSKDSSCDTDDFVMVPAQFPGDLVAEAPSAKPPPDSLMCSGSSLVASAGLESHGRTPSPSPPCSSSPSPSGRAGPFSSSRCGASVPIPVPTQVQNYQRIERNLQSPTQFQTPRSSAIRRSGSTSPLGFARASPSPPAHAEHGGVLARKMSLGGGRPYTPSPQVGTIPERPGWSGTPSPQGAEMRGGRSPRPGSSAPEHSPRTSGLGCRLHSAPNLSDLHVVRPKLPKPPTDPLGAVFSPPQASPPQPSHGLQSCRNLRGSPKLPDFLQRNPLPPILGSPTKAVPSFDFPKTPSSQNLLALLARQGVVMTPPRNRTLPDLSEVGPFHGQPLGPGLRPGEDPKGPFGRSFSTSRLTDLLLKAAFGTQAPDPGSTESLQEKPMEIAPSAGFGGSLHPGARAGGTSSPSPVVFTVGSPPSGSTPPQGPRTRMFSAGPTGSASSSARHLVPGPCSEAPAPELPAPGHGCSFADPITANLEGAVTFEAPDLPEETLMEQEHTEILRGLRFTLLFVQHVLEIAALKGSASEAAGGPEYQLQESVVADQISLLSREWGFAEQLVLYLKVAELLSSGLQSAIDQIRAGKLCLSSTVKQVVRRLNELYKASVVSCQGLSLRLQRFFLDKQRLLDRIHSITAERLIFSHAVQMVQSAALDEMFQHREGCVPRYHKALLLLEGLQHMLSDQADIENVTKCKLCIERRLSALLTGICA

[7] = target: Tyrosine-protein kinase JAK2 (Homo sapiens, UniProt O60674); experiment: Selectivity interaction (Upstate Kinase Profiler service (Millipore)) EUB0000056c JAK2; conditions: at 1 µM
Chain of Tyrosine-protein kinase JAK2 (O60674 whole entry): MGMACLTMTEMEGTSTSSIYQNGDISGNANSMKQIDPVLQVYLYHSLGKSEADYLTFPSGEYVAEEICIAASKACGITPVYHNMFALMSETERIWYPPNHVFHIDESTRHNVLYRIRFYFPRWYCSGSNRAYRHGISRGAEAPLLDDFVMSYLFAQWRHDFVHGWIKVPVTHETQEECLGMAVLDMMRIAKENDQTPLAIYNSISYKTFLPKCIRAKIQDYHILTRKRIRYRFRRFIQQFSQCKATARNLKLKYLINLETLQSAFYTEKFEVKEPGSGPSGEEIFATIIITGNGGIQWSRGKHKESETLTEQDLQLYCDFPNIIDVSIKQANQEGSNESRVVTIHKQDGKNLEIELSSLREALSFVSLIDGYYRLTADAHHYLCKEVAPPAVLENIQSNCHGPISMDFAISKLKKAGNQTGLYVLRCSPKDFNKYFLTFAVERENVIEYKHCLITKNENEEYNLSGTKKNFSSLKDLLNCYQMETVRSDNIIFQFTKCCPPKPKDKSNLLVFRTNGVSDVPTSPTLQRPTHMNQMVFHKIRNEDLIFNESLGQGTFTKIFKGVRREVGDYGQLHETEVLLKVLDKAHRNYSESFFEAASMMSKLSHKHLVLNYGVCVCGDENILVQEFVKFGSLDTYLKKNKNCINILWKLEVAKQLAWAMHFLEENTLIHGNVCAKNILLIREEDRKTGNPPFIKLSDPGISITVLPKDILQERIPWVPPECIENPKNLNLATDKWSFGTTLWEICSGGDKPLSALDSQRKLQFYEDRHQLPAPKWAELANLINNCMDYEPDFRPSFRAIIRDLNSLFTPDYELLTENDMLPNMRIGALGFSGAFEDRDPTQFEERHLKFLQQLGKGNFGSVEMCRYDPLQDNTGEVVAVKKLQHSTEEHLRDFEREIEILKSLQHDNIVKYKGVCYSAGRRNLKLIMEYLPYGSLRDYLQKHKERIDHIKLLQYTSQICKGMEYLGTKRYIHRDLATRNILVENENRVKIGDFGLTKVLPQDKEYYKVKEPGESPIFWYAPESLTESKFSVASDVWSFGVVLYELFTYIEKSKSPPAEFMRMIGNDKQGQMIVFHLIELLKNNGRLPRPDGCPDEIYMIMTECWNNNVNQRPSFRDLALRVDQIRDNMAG

Aurora kinase B = Aurora kinase B (Homo sapiens, UniProt Q96GD4); experiment: Selectivity interaction (SelectScreen profiling (Invitrogen)) EUB0000607a AURKB; conditions: at 2 µM
Chain of Aurora kinase B (Q96GD4 whole entry): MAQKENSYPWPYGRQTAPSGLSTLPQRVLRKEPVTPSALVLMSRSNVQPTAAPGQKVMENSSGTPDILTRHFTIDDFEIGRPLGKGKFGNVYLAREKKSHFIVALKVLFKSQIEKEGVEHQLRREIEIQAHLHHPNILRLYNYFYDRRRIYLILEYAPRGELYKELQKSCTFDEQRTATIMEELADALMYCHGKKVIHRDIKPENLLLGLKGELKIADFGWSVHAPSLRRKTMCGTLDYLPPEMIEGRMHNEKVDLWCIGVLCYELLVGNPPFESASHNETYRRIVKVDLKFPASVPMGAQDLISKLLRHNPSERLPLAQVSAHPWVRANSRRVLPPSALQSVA

[8] = target: T3, Inhibitor of nuclear factor kappa-B kinase subunit epsilon (Homo sapiens) (UniProt Q14164); experiment: Selectivity interaction (KinomeScan (DiscoverX)) EUB0000607a IKBKE; conditions: at 10 µM
T3 sequence (whole entry): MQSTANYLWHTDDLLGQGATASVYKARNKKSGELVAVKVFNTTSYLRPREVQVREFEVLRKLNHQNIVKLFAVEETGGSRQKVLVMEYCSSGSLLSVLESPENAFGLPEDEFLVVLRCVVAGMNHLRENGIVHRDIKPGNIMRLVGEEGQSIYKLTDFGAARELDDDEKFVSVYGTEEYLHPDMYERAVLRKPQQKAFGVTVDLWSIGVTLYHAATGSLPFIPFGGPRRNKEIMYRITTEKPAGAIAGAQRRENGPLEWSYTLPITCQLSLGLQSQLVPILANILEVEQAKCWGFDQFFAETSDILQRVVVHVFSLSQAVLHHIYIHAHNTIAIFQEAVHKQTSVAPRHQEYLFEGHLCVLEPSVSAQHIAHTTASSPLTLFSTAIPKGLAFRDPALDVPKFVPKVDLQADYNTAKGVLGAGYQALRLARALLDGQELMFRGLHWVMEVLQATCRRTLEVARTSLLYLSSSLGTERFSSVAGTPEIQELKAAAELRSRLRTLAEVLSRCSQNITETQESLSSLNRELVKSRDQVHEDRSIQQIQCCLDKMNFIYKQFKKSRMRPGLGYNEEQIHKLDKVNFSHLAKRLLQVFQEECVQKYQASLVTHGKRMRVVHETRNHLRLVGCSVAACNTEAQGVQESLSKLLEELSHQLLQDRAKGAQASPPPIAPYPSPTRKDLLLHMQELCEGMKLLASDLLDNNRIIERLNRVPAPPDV

Chain of Casein kinase I isoform alpha (P48729 2-337 limits assumed): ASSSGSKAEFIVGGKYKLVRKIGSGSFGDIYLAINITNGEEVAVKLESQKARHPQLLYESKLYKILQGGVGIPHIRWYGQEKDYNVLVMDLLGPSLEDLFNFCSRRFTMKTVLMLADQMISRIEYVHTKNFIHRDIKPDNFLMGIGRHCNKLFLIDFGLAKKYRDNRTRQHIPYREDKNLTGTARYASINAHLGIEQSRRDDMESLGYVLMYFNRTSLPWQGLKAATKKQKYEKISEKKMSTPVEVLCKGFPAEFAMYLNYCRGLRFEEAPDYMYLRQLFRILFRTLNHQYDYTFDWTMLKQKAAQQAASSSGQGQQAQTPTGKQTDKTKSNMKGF

**Q.** For Cc1cc([C@@H](C)Nc2ccccc2C(=O)O)c2nc(N3CCOCC3)cc(=O)n2c1 [AZD-6482], which % of control [1] is on record?
**A.** Its % of control is 100%.

**Q.** With Cc1cnc(Nc2ccc(F)cc2Cl)nc1-c1c[nH]c(C(=O)N[C@H](CO)c2cccc(Cl)c2)c1 as the molecule, how does the % of inhibition [2] read?
**A.** The % of inhibition was 25%.

**Q.** With CC[C@@H]1[C@H](F)C(=O)N[C@@H]1COc1nccc2cc(C(N)=O)c(OC)cc12 [ZIMLOVISERTIB] as the molecule, how does the % of inhibition [3] read?
**A.** Its % of inhibition is 20.9%.

**Q.** And the % of inhibition [4]?
**A.** The % of inhibition was 2.23%.

**Q.** How did the % of inhibition [5] turn out when Cn1cc(Nc2nccc(N3CC4CCC(C3)N4C(=O)[C@@H]3CC3(F)F)n2)cn1 was run?
**A.** Its % of inhibition is 101%.

**Q.** How did the % of control [6] turn out when Cc1cc(F)c(C(=O)Nc2cccc(-c3nncn3C(C)C)n2)cc1-n1cnc(C2CC2)c1 was run?
**A.** The % of control was 100%.

**Q.** Cc1ccc(-c2ccc3c(ccc4sc5c(c43)NC[C@@H](C)NC5=O)n2)cn1 was tested. Which % of inhibition [7] did it give?
**A.** The % of inhibition was 14%.

**Q.** How did the % of inhibition (Aurora kinase B) turn out when CNC(=O)Nc1ccc(-c2nc(N3CC4CCC(C3)O4)c3cnn(C4CCC5(CC4)OCCO5)c3n2)cc1 was run?
**A.** Its % of inhibition is 3%.

**Q.** What about the % of control [8] of the same molecule?
**A.** The % of control was 100%.
